Results on one compound are retold here after EPA's ToxValDB 9.5 (doi:10.2903/j.efsa.2010.1721).

Data set [1] relates to Aphidius rhopalosiphi. Briefly: LR50; higher = less toxic. To be noted: not reported; mortality.
Data set [2] concerns Typhlodromus pyri. The data set can be described thus: LR50; higher = less toxic. To be noted: not reported; mortality.
The test system of data set [3] is Mus musculus. The note with it: acute; oral; mortality.
The subject of data set [4] is Oncorhynchus mykiss.
For data set [5], the system named is Tagia sp. The note with it: acute; duration: 14 days; mortality.
The subject of data set [6] is Rattus norvegicus.
Data set [7] relates to Canidae. To be noted: chronic; duration: 1 years; oral; Dog Other; organ weight.
Data set [8] concerns Apis mellifera. The note with it: acute; duration: 48 hours; oral; unspecified; mortality.
The test system of data set [9] is Oryctolagus sp. To be noted: reproduction developmental; body weight.
Data set [10] deals with Daphnia magna. To be noted: chronic/long-term; duration: 21 days; reproduction.
Data set [11] relates to Anas platyrhynchos. The note with it: oral, mortality.
Data set [12] deals with Colinus virginianus. To be noted: for LD50: acute, oral, mortality.

Molecules are shown by their SMILES.

For the compound `CCOc1ccc(NC(=O)OC(C)C)cc1OCC` [Diethofencarb], the LR50 in data set [1] was greater than 1500 g/ha; in data set [2], 7.2 g/ha. In addition, the LD50 in [3] was greater than 5000 mg/kg-day; in data set [6] (acute, oral, mortality) it was greater than 5000 mg/kg-day; in data set [8], greater than 100 µg/piece; in [11] (acute, unspecified), greater than 2250 mg/kg-day; in [11] (short-term, feed) it was greater than 1630 mg/kg-day; in data set [12] (diet), greater than 1810 mg/kg-day. Besides, the LD50 in [12] is greater than 2250 mg/kg-day. The LC50 in [4] (acute, duration: 96 hours, mortality) was greater than 10 µg/mL; in data set [5] it was greater than 1000 mg/kg. The NOEC is 0.072 mg/L in data set [4] (chronic/long-term, duration: 88 days, growth) and 0.032 mg/L in data set [10]. Further, the no-observed-adverse-effect level (NOAEL) (usually the highest dose or exposure tested at which no adverse effect was seen) in data set [6] (chronic, duration: 2 years, organ weight) came to 42.7 mg/kg-day; in data set [7] it was 50 mg/kg-day. Further, the NOEL in data set [9] is 300 mg/kg-day; in data set [12] (reproduction developmental), 78.7 mg/kg-day.
